Source: paper PMC7699524, “Assessing the Intestinal Permeability and Anti-Inflammatory Potential of Sesquiterpene Lactones from Chicory” (Nutrients, 2020)
Marks after values point to notes of the source that are not given here.

Columns and labels:
Caco-2 cells = test: Permeability across Caco-2 monolayer (apical concentration by LC-MS); settings: for % of Decrease in SL Concentration in the Apical Side (t = 4h) / SL conjugates with cysteine in the apical side after 4 h / Concentration of SL (Apical Side) t = 4 h / Concentration of SL (Apical Side) t = 0 h: Caco-2 monolayer; for % of Decrease in SL Concentration in the Apical Side (t = 4h): 10 µM apical, 4 h vs t = 0 h; for Concentration of SL (Apical Side) t = 4 h / Concentration of SL (Apical Side) t = 0 h: SL added at 10 µM apical; for Concentration of SL (Apical Side) t = 4 h: after 4 h; for Concentration of SL (Apical Side) t = 0 h: before experiment
Method: For intestinal permeability assessments of pure SLs, Caco-2 cells were seeded in 12 mm Transwell® inserts (polyester membrane, 0.4 μm pore size, Corning Costar Corp., NY, USA) at a density of 1.0 × 10^5 cell/cm^2. Cells were allowed to grow and differentiate to a confluent monolayer for 21 days postseeding with medium change three times per week. This mimics the apical and basolateral sides of the intestinal mucosa. Before the permeability assay, cells were washed with Hank’s balanced salt solution (HBSS) (Gibco, Life Technologies, Paisley, UK), and pure SLs in HBSS were added to the apical side for 4 h at the noncytotoxic concentration of 10 μM, while the basolateral well was replaced by HBSS. The fluorescent marker fluorescein (2.7 µM) was used as control, having been submitted to the same protocol as the SLs. Cells were submitted to an orbital shaking of 125 rpm (Ohaus, Shanghai, China), and samples from the basolateral side were collected after 15 min, 30 min, and then every hour until the end of the assay, and each time the retrieved volume was replaced by fresh HBSS to maintain sink conditions. After the 4 h assay, both apical and basolateral contents were collected, the cells were washed with PBS followed by culture medium, and culture medium was added to both compartments for 24 h to assess monolayer recovery. All samples were stored at −80 °C until LC-MS analysis.
Transepithelial electrical resistance (TEER) of all monolayers was monitored before and during experiments, and 24 h after the assay, to ensure their integrity using an EVOM™ voltmeter (WPI, Berlin, Germany). Before each experiment, TEER was measured and only monolayers with a TEER value higher than 500 Ω cm^2 were used. Experiments were done in triplicate.
Ultra High Performance Liquid Chromatography (UHPLC) separations were performed with a Dionex U3000 UHPLC coupled with a U3000 Photo Diode Array (PDA) and an LTQ-Orbitrap XL Mass Spectrometry (MS) system (Thermo-Fisher Ltd., Hemel Hempstead, UK). The MS and PDA systems were tuned and calibrated according to the manufacturers recommended procedures. The UHPLC was operated under Xcalibur and Chromeleon software (Thermo-Fisher Ltd. UK). A flow rate of 300 µL/min was applied, the column and guard (Synergi C18 Hydro-RP 80 Ä, 150 × 2.0 mm, 4 µm particle size; Phenomenex Ltd. U.K.) were maintained at a temperature of 30 °C. The solvent system compositions were, A: HPLC grade water (J.T. Baker, Scientific Chemical Supplies Ltd. UK), and solvent B: HPLC grade acetonitrile (J.T. Baker, Scientific Chemical Supplies Ltd. UK), both acidified with 0.1% MS grade formic acid (Ultima, Fisher Scientific, UK). A sample injection volume of 10 µL was employed in partial-loop mode. The gradient program was as follows: hold 2% B 0–2 min, 2–5% B 2–5 min, 5–45% B 5–25 min, 45–100% B 25–35 min, hold 100% B 35–38 min, 100–2% B 38–39 min, hold 2% B 39–44 min. Autosampler syringe and line washes were performed with 2:8 HPLC grade water: acetonitrile (J.T. Baker, Scientific Chemical Supplies Ltd., UK). The HPLC column eluent was first monitored by the U3000 PDA detector where spectra were collected in wavelength/absorbance mode from 200–600 nm. Additionally, three channel set points were employed, Channel A 210 nm, Channel B 260 nm, Channel C 320 nm. Spectra were collected with a filter bandwidth of 8 nm and wavelength step of 1 nm, the scan rate was 5 Hz.
The UHPLC eluent was next transferred to a Thermo LTQ-Orbitrap XL mass spectrometry system operated under Xcalibur (Thermo-Fisher Ltd. UK). For the first two minutes of analysis the UHPLC eluent was diverted to waste, from two to 39 min the eluent was directed to the MS detector, before being diverted back to waste between 39–44 min. Mass spectra were collected in centroid mode with a primary full scan event (m/z 100–1000) at a mass resolution of 30,000 (FWHM defined at m/z 400) within the Fourier Transform (FT) detector.

calcineurin-Crz1 pathway = test: β-Galactosidase CDRE-lacZ yeast reporter assay of Crz1 activation; assay type: cell-based, S. cerevisiae; settings: Saccharomyces cerevisiae, MnCl2 3 mM activation, strain YAA5; for inhibition at 12.5 µM: read-out: Calcineurin-Crz1 Inhibition (%) ± SD, 12.5 µM
Method: Cultures at OD600= 0.5 ± 0.05 were diluted to OD600= 0.1 ± 0.01, transferred to 96-well microplate and challenged with the highest nontoxic concentration previously determined for each compound to investigate their putative inhibitory effect towards the calcineurin-responsive zinc finger (Crz1) activation. Measurements of β-galactosidase activity driven by the calcineurin-dependent response element (CDRE) regulated lacZ reporter gene allowed the quantitative assessment of the capacity of each compound to inhibit the activation of Crz1. FK506 (Cayman Chemicals, Ann Arbor, MI, USA) was used as a positive control at a final concentration of 12.5 μM. After 90 min of incubation with the respective compounds at 30 °C under orbital shaking, MnCl2 (Merck, Saint Louis, MO, USA) was added at a final concentration of 3 mM. After 90 min of incubation under the same conditions, OD600 of cultures were recorded, 10 μL of cell suspensions were transferred to a new 96-well plate followed by addition of 20 μL Y-PER cell lysis reagent (ThermoFisher Scientific), and the plates were incubated for 20 min at 37 °C without agitation. 240 μL of LacZ buffer (8.5 g/L Na2HPO4 (ROTH), 5.5 g/L NaH2PO4.H2O (Merck), 0.75 g/L KCl (Panreac), 0.246 g/L MgSO4.7H2O (Merck) containing […] o-nitrophenyl β-D-galactopyranoside (ONPG) (Sigma–Aldrich®—Poole, Dorset, UK) was added to each well, and plates were incubated at 30 °C for 2 h. The OD420 and OD550 were monitored using a Biotek Power Wave XS Microplate Spectrophotometer (Biotek® Instruments, Winooski, VT, USA). The results were expressed as Miller units (MU), applying the following equation, where V = volume of culture assayed in mL; t = reaction time in minutes: Miller unit = 1000 × (OD420 − 1.75 × OD550)/(t × V × OD600)(1)

yeast cells = test: Yeast cell viability (Cell Titer Blue); assay type: cell-based, S. cerevisiae; settings: Cell Titer Blue assay
Method: Doses of SLs ranging from 12.5 μM to 100 μM for each compound were used in the yeast viability assays. Cultures obtained were diluted to a final OD600 = 0.025 ± 0.0025. The viability assays were performed in 96-wells microplates using 100 µL of diluted culture suspensions and 10 µL of Cell Titer Blue reagent (Promega, WI, USA) according to manufacturer’s instructions for 3 h at 30 °C. Fluorescence was measured in 30 min intervals at emission wavelength 580 nm using the Biotek Power Wave XS Microplate Spectrophotometer (Biotek® Instruments, Winooski, VT, USA).

[1] = Caco-2 apical side, conjugates estimated against calibration curves of parent SLs
[2] = LC-MS, apical side, t = 4 h, parent SLs added at 10 μM

Apical Concentration t = 4 h (µM Equivalents to Parent SL) (Caco-2 cells; Caco-2) | SMILES | % of Decrease in SL Concentration in the Apical Side (t = 4h) (Caco-2 cells) | SL conjugates with cysteine in the apical side after 4 h (Caco-2 cells; LC-MS) | Concentration of SL (Apical Side) t = 4 h (Caco-2 cells) | Concentration of SL (Apical Side) t = 0 h (Caco-2 cells) [µM] | inhibition at 12.5 µM (calcineurin-Crz1 pathway) [%] | Apical Concentration t = 4 h (µM Equivalents to Parent SL) (Caco-2 cells; [1]) | Peak Area (Average a.u.) (Caco-2 cells; [2]) | other results
 | CC1=C2C(=O)C=C(CO)C2C2OC(=O)C(C)C2C(OC(=O)Cc2ccc(O)cc2)C1 (stereo not drawn) [11β,13-dihydrolactucopicrin] | 29.9 * % | not detected | 4.9 ± 0.9 µM | 7.0 ± 1.2 | 26 ± 11 |  |  | 
 | C/C1=C\[C@H]2OC(=O)C(CSC[C@H](N)C(=O)O)[C@@H]2CC/C(C)=C/CC1 (stereo partly drawn) [Costunolide-Cys] |  |  |  |  |  | 95 ± 8.4 µM Equivalents to Parent SL | 3.1 × 10^8 a.u. | 
 | C=C1C(=O)O[C@@H]2/C=C(\C)CC/C=C(\C)CC[C@@H]12 [Costunolide] | 100 ** % | detected | <LOD | 13.1 ± 1.8 |  | <LOD |  | Concentration of SL (Apical Side) t = 4 h (Caco-2 cells; listed as costunolide): LOQ; Highest nontoxic concentration in yeast (yeast cells): 6.25 µM; inhibition at 6.25 µM (calcineurin-Crz1 pathway; read-out: Calcineurin-Crz1 Inhibition (%) ± SD, 6.25 µM): 18 ± 9%
 | C=CC[C@@H]1/C=C(\C)C[C@H](C)C[C@H](OC)[C@H]2O[C@@](O)(C(=O)C(=O)N3CCCC[C@H]3C(=O)O[C@H](/C(C)=C/[C@@H]3CC[C@@H](O)[C@H](OC)C3)[C@H](C)[C@@H](O)CC1=O)[C@H](C)C[C@@H]2OC [FK506, reference compound] |  |  |  |  | 67 ± 13 |  |  | 
 | C=C1C(=O)O[C@@H]2[C@H]3C(CO)=CC(=O)C3=C(C)C[C@H](O)[C@@H]12 [Lactucin, lactucin] | 28.8 *** % | detected | 5.9 ± 0.5 µM | 8.3 ± 0.7 | 20 ± 14 | 5.9 ± 0.5 µM Equivalents to Parent SL | 6.8 × 10^7 a.u. | % of Decrease in SL Concentration in the Apical Side (t = 4h) (Caco-2 cells; listed as lactucin): ≈ 30%
2.9 ± 3.6 µM Equivalents to Parent SL | CC1=C2C(=O)C=C(CO)C2C2OC(=O)C(CSCC(N)C(=O)O)C2C(O)C1 (stereo not drawn) [Lactucin-Cys] |  |  |  |  |  |  |  | 
 | C=C1C(=O)O[C@@H]2[C@H]3C(CO)=CC(=O)C3=C(C)C[C@H](OC(=O)Cc3ccc(O)cc3)[C@@H]12 [Lactucopicrin, lactucopicrin] | 100 ** % | detected | <LOQ | 12.4 ± 1.3 | 18 ± 9 | <LOQ | 1.2 × 10^6 a.u. | Concentration of SL (Apical Side) t = 4 h (Caco-2 cells; listed as lactucopicrin): LOQ
17.8 ± 2.9 µM Equivalents to Parent SL | CC1=C2C(=O)C=C(CO)C2C2OC(=O)C(CSCC(N)C(=O)O)C2C(OC(=O)Cc2ccc(O)cc2)C1 (stereo not drawn) [Lactucopicrin-Cys] |  |  |  |  |  |  |  | 
 | C=C1C(=O)O[C@H]2[C@H]1CC/C(C)=C/CC[C@@]1(C)O[C@@H]21 [Parthenolide, parthenolide, reference compound] | 100 ** % | detected | <LOQ | 11.9 ± 2.0 | 20 ± 12 | <LOQ |  | Peak Area (Average a.u.) (Caco-2 cells; human, Caco-2, 4 h, 10 µM): 9.2 × 10^5 a.u.
27 ± 5.9 µM Equivalents to Parent SL | CC1=CCCC2(C)OC2C2OC(=O)C(CSCC(N)C(=O)O)C2CC1 (stereo not drawn) [Parthenolide-Cys] |  |  |  |  |  |  |  | 
